Reference: US20230174571A1, “METHOD OF TREATING SHIP1-MEDIATED DISEASES USING PELOROL DERIVATIVES” (Zebrapeutics Inc., priority 2020, published 2023)

Experiments:
SHIP1 and STAT3 [1] = molecular target: T1, SHIP1 and STAT3 (Mus musculus, UniProt Q9ES52); test: In vitro pull down assay of His6-SHIP1 with STAT3; format: cell-based; details: J17 His6-SHIP1 cells; 100 ng/ml IL10 or IL6, 20 μM compound I-2; 5 minutes
T1 construct: expressed in transfected cells; host or cells: J17 (SHIP1-/- mouse BMDM-derived line), lentiviral transduction
T1 sequence (Q9ES52 1-1191): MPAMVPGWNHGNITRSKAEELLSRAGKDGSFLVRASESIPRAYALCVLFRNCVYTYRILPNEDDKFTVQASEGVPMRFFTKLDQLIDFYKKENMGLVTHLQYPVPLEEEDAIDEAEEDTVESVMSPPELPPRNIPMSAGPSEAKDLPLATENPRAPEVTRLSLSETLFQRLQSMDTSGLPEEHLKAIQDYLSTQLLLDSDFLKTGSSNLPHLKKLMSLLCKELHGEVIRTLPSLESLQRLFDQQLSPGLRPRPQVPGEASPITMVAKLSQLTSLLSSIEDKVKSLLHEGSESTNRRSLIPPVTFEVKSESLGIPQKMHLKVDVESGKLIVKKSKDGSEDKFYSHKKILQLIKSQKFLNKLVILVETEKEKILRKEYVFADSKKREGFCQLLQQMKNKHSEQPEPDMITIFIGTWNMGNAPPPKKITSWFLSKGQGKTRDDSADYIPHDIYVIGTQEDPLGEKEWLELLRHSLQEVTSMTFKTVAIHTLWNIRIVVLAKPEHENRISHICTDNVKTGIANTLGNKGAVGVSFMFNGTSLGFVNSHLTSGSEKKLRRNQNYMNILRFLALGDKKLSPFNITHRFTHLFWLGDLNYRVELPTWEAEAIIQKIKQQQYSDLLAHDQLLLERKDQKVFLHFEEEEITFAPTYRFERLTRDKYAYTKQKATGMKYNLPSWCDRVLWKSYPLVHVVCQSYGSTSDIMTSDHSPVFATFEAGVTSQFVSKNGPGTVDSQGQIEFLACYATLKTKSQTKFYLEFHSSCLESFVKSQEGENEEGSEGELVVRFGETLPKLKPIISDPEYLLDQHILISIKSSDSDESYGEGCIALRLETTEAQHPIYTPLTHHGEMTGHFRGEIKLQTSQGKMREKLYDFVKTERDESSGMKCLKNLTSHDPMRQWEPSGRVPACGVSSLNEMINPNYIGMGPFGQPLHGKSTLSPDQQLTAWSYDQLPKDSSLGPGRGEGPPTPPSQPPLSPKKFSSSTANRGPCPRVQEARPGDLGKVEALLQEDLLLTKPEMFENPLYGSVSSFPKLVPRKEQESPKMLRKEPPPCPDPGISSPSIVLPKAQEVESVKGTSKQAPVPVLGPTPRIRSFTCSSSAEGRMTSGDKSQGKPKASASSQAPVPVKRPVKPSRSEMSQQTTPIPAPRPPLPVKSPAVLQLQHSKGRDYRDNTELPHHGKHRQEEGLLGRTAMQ
Protocol: In vitro pull down assay. J17 His6-SHIP1 and Y190F cells were seeded at 2×10^6 cells per well in a 6-well plate. After overnight incubation, fresh cell media was added for 30 minutes before stimulation with 100 ng/ml IL10, […] or 20 μM compound I-2 for 5 minutes. Cells were lysed with Protein Solubilization Buffer (PSB, 50 mM Hepes, pH 7.5, […], 10 mM Na Pyrophosphate, 2 mM NaVO4, 2 mM Na Molybdate, 2 mM EDTA) containing 1% octylglucoside, 0.01 M imidazole, and protease inhibitor cocktail (Roche Diagnostics, Laval, QC) for 30 minutes at 4° C. and centrifuged at 10000 rpm for 15 minutes. EDTA resistant Ni beads (Roche Diagnostics, Laval, QC) were added to supernatants and the mixture incubated at 4° C. for 1 hour before spinning down and washing of beads three times with 0.1% octylglucoside wash buffer in PSB. Bead samples and starting material cell lysates were separated on a 7.5% SDS-PAGE gel.
Immunoblotting. Protein lysates were separated on SDS-PAGE gels and transferred onto polyvinylidene fluoride (PVDF) membrane (Millipore, Etobicoke, ON). Membranes were blocked and probed, where appropriate, with the following primary antibodies overnight: SHIP1 (P1C1) (Santa Cruz Biotechnology), pSHIP1 (Y190) (Kinexus), STAT3 (9D8) (ThermoFisher Scientific), pSTAT3 (Y705) (Thermo Fisher Scientific), STAT1 (BD Transduction Laboratories), pSTAT1 (Y701) (Upstate Biotechnology), GAPDH and actin (Sigma-Aldrich). Membranes were developed with either Alexa Fluor® 660 anti-mouse IgG or Alexa Fluor® 680 anti-rabbit IgG antibodies (Thermo Fisher Scientific) and imaged using a LI-COR Odyssey Imager.

SHIP1 and STAT3 [2] = molecular target: T1, SHIP1 and STAT3; test: Immunofluorescence of SHIP1 and STAT3 subcellular localization in peritoneal macrophages; format: cell-based; details: for membrane association of SHIP1 and STAT3 / nuclear localization of SHIP1 and STAT3: wild-type perimacs, 100 ng/ml IL10 or 20 μM I-2; for membrane association of SHIP1 and STAT3: 2 min; for nuclear localization of SHIP1 and STAT3: 20 min
Protocol: Isolation of mouse peritoneal macrophages. Primary peritoneal macrophages (perimacs) were isolated from mice by peritoneal lavage with 3 ml of sterile Phosphate Buffered Saline (PBS) (Thermo Fisher Scientific, Nepean, ON). Perimacs were collected and transferred to Mac media.
Immunofluorescence. Perimacs were seeded at 3×10^5 cells per well in 18-well Ibidi p-Slides (Ibidi GmbH, Martinsried, Germany) and allowed to adhere for 3 hours before washing with PBS to remove non-adherent cells. CD8+ T cells were seeded at 2×10^6 cells in 12-well tissue culture plates. Cells were stimulated with either 100 ng/ml IL10 or 20 μM compound I-2 for 2 or 20 minutes followed by 3×PBS washes and fixing of cells in 4% paraformaldehyde for 15 minutes at room temperature. Cells were incubated with anti-mouse CD16/CD32 Fc Block (BD Pharmingen) for 1 hour followed by an overnight incubation at 4° C. with either anti-SHIP1 antibody (P1C1) (Santa Cruz Biotechnology) or anti-STAT3 antibody (9D8) (ThermoFisher Scientific). Cells were then incubated with anti-mouse IgG (H+L)-Alexa Fluor 660 secondary antibody (ThermoFisher Scientific) for 1 hour, followed by, for perimacs, anti-CD11b-FITC antibody (BD Pharmingen) for 30 minutes. CD8+ T cells were mounted onto 18-well Ibidi p-Slides prior to confocal microscopy and cells were stored in Ibidi Mounting Media supplemented with ProLong Gold antifade reagent with DAPI (Molecular Probes, Life Technologies). Cells were imaged on a Leica SP5II on DM6000 confocal microscope with a 63×/1.4-0.6 Oil PL APO objective using 405, 488 and 633 nm laser lines for excitation. Final images were scanned sequentially acquiring eight Z-stacks with a frame-average of four. Co-localization analysis was performed using ImageJ software by first combining individual z-stack confocal images then performing deconvolution and co-localization using CUDA deconvolution and JACoP plugins respectively. Pearson's coefficient values were produced as a measurement of the degree of overlap between SHIP1 or STAT3 with CD11b (for Perimacs) or DAPI.

Compound | association (co-precipitation) of SHIP1 and STAT3 (SHIP1 and STAT3 [1]) | membrane association of SHIP1 and STAT3 (SHIP1 and STAT3 [2]) | nuclear localization of SHIP1 and STAT3 (SHIP1 and STAT3 [2]) | mimicry of IL10 with respect to SHIP1 and STAT3 translocations (SHIP1 and STAT3 [2]; peritoneal macrophages)
CC12CCC3C(C)(C)C(N)CCC3(C)C1Cc1cc(O)cc(O)c12 (centres unmarked) [Compound I-2] | sufficient to induce association of SHIP1 and STAT3 | induced membrane association of both SHIP1 and STAT3 | both SHIP1 and STAT3 are found in the nucleus | –
Cc1cc(O)cc2c1C1(C)CCC3C(C)(C)CCCC3(C)C1C2 (centres unmarked) [Compound I-1] | could by itself induce formation of a SHIP1/STAT3 complex | – | – | can mimic IL10
IL10: anti-inflammatory cytokine interleukin-10 | resulted in co-precipitation of SHIP1 with STAT3 | induced membrane association of both SHIP1 and STAT3 | both SHIP1 and STAT3 are found in the nucleus | –
